Molecular target: T1, LXRβ (Homo sapiens, UniProt P55055)
T1 construct: Co-transfection expression plasmids, comprising full-length LXRα (pCMX-h LXRα[…] or LXRβ (pCMX-hLXRβ)); expressed in transfected cells; host or cells: CV-1 African Green Monkey Kidney Cells
T1 sequence (P55055 1-460): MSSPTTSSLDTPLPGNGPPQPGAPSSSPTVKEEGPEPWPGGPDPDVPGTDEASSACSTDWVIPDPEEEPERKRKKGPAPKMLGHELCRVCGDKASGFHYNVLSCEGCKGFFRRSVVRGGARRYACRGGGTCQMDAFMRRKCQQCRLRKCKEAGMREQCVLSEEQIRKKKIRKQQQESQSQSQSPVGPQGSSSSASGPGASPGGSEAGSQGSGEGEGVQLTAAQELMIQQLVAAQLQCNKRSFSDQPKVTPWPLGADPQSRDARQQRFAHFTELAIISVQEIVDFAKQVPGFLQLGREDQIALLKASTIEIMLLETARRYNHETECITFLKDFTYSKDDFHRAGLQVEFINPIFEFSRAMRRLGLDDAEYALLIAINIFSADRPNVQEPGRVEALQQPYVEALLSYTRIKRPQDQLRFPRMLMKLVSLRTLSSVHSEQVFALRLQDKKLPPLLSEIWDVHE
T1 sequence (P19793 1-462 partner): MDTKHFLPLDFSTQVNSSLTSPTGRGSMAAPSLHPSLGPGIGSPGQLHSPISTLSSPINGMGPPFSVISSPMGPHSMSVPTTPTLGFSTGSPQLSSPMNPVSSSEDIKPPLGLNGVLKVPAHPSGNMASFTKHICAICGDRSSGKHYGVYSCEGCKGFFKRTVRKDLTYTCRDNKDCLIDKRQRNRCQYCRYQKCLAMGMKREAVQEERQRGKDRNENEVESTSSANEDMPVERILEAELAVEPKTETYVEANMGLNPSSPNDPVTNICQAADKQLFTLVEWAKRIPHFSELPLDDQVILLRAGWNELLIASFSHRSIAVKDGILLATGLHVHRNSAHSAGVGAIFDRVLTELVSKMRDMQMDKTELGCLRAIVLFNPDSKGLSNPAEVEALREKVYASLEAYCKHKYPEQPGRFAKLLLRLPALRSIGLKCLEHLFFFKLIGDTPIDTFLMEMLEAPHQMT
Experiment: Co-transfection assay (LXRE luciferase reporter), LXRβ
Format: cell-based
Details: for EC50: CV-1 cells transfected with pCMX-hLXRβ and LXREx1-Tk-Luciferase, 20 hours incubation; for Emax: LXRβ co-transfection, relative to high control 1-(2,4-difluorobenzyl)-2-oxo-6-(4-phenoxyphenyl)-4-(trifluoromethyl)-1,2-dihydropyridine-3-carbonitrile, read-out: % Efficacy
How it was run: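 Luciferase output from an LXRE-Tk reporter measured after 20 h, 37 °C compound exposure of transiently transfected CV-1 cells expressing human LXRβ with endogenous RXR. EC50 fitted from 11-point half-log dose responses (mean of ≥2 runs); % efficacy versus maximal response of the reference agonist.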

SMILES	EC50 [nM]	Emax [%]
Cc1cc(-c2cc(-c3cc(F)c(CO)c(S(C)(=O)=O)c3)ccc2-n2cc(C(F)(F)F)nc2C)n(-c2ccc(Cl)cc2)n1 [Example 290, {3′-[1-(4-chlorophenyl)-3-methyl-1H-pyrazol-5-yl]-3-fluoro-5-(methylsulfonyl)-4′-[2-methyl-4-(trifluoromethyl)-1H-imidazol-1-yl]biphenyl-4-yl}methanol]	30	43
COc1ccc(-c2cnnn2-c2cc(-c3cccc(S(C)(=O)=O)c3)ccc2-n2cc(C(F)(F)F)nc2C)cc1OC(F)F [Example 42, 5-{3-[(difluoromethyl)oxy]-4-(methyloxy)phenyl}-1-{3′-(methylsulfonyl)-4-[2-methyl-4-(trifluoromethyl)-1H-imidazol-1-yl]biphenyl-3-yl}-1H-1,2,3-triazole]	1060	43
CNS(=O)(=O)c1cccc(-c2ccc(-n3cc(C(F)(F)F)nc3C)c(-n3nncc3-c3ccc(OC(F)(F)F)cc3)c2)c1 [Example 213, N-methyl-4′-(2-methyl-4-(trifluoromethyl)-1H-imidazol-1-yl)-3′-(5-(4-(trifluoromethoxy)phenyl)-1H-1,2,3-triazol-1-yl)-[1,1′-biphenyl]-3-sulfonamide]	94	89
Cc1nc(C(C)(F)F)cn1-c1ccc(-c2ccc(CO)c(S(C)(=O)=O)c2)cc1-n1nncc1-c1ccc(OC(F)(F)F)cc1 [Example 178, {4′-[4-(1,1-difluoroethyl)-2-methyl-1H-imidazol-1-yl]-3-(methylsulfonyl)-3′-(5-{4-[(trifluoromethyl)oxy]phenyl}-1H-1,2,3-triazol-1-yl)biphenyl-4-yl}methanol]	638	89
Cc1nc(-c2cc(-c3cccc(S(C)(=O)=O)c3)ccc2-n2cc(C(F)(F)F)nc2C)c(-c2ccc(OC(CF)CF)c(F)c2)o1 [Example 406, 5-(4-(1,3-difluoropropan-2-yloxy)-3-fluorophenyl)-2-methyl-4-(4-(2-methyl-4-(trifluoromethyl)-1H-imidazol-1-yl)-3′-(methylsulfonyl)biphenyl-3-yl)oxazole]	181	68
Cc1nc(C(F)(F)F)cn1-c1ccc(-c2cccc(S(C)(=O)=O)c2)cc1-n1nncc1C(=O)c1ccc(C(F)(F)F)cc1 [Example 138, (1-{3′-(methylsulfonyl)-4-[2-methyl-4-(trifluoromethyl)-1H-imidazol-1-yl]biphenyl-3-yl}-1H-1,2,3-triazol-5-yl)[4-(trifluoromethyl)phenyl]meth-anone]	1290	99
Cc1nc(-c2cc(-c3cccc(S(C)(=O)=O)c3)ccc2-n2cc(C(F)(F)F)nc2C)c(-c2ccc(OC(F)F)c(F)c2)o1 [Example 376, 5-(4-(difluoromethoxy)-3-fluorophenyl)-2-methyl-4-(4-(2-methyl-4-(trifluoromethyl)-1H-imidazol-1-yl)-3′-(methylsulfonyl)biphenyl-3-yl)oxazole]	64	84
Cc1nc(C(F)(F)F)cn1-c1ccc(-c2cccc(S(C)(=O)=O)c2)cc1-n1nncc1C(=O)c1ccc(Cl)cc1 [Example 10, (4-chlorophenyl)(1-{3′-(methylsulfonyl)-4-[2-methyl-4-(trifluoromethyl)-1H-imidazol-1-yl]biphenyl-3-yl}-1H-1,2,3-triazol-5-yl)methanone]	541	62
Cc1nc(C(F)F)cn1-c1ccc(-c2cccc(C(C)(C)C(N)=O)c2)cc1-n1nncc1-c1ccc(OC(F)(F)F)cc1 [Example 156, 2-{4′-[4-(difluoromethyl)-2-methyl-1H-imidazol-1-yl]-3′-(5-{4-[(trifluoromethyl)oxy]phenyl}-1H-1,2,3-triazol-1-yl)biphenyl-3-yl}-2-methylpropanamide]	1640	93
Cc1nc(C(F)(F)F)cn1-c1ccc(-c2cc(F)c(CO)c(S(C)(=O)=O)c2)cc1-c1oc(C(C)C)nc1-c1ccc(OC(F)(F)F)cc1 [Example 601, {3-fluoro-3′-[2-(1-methylethyl)-4-{4-[(trifluoromethyl)oxy]phenyl}-1,3-oxazol-5-yl]-5-(methylsulfonyl)-4′-[2-methyl-4-(trifluoromethyl)-1H-imidazol-1-yl]biphenyl-4-yl}methanol]	30	74
Cc1nc(C(F)(F)F)cn1-c1cc(F)c(-c2cccc(S(C)(=O)=O)c2)cc1-n1nncc1-c1ccc(Cl)cc1 [Example 100, 5-(4-chlorophenyl)-1-{6-fluoro-3′-(methylsulfonyl)-4-[2-methyl-4-(trifluoromethyl)-1H-imidazol-1-yl]biphenyl-3-yl}-1H-1,2,3-triazole]	1110	97
Cc1nc(C(N)=O)cn1-c1ccc(-c2cc(F)c(CO)c(S(C)(=O)=O)c2)cc1-c1nc(C2CC2)oc1-c1ccc2c(c1)OC(F)(F)O2 [Example 490, 1-(3-(2-cyclopropyl-5-(2,2-difluorobenzo[d][1,3]dioxol-5-yl)oxazol-4-yl)-3′-fluoro-4′-(hydroxymethyl)-5′-(methylsulfonyl)biphenyl-4-yl)-2-methyl-1H-imidazole-4-carboxamide]	76	54
Cc1nc(C(F)F)cn1-c1ccc(-c2cc(F)c(CO)c(S(C)(=O)=O)c2)cc1-n1nncc1-c1ccc(OC(F)(F)F)cc1 [Example 220, (4′-(4-(difluoromethyl)-2-methyl-1H-imidazol-1-yl)-3-fluoro-5-(methylsulfonyl)-3′-(5-(4-(trifluoromethoxy)phenyl)-1H-1,2,3-triazol-1-yl)-[1,1′-biphenyl]-4-yl)methanol]	782	102
Cc1nc(-c2cc(-c3cc(F)c(CO)c(S(C)(=O)=O)c3)ccc2-n2cc(C(F)(F)F)nc2C)c(-c2ccc(OC(CF)CF)c(F)c2)o1 [Example 407, (3′-(5-(4-(1,3-difluoropropan-2-yloxy)-3-fluorophenyl)-2-methyloxazol-4-yl)-3-fluoro-4′-(2-methyl-4-(trifluoromethyl)-1H-imidazol-1-yl)-5-(methylsulfonyl)biphenyl-4-yl)methanol]	118	70
Cc1nc(-c2cc(-c3cccc(S(=O)(=O)C(F)F)c3)ccc2-n2cc(C(F)(F)F)nc2C)c(-c2ccc3c(c2)OC(F)(F)O3)o1 [Example 417, 5-(2,2-difluorobenzo[d][1,3]dioxol-5-yl)-4-(3′-(difluoromethylsulfonyl)-4-(2-methyl-4-(trifluoromethyl)-1H-imidazol-1-yl)biphenyl-3-yl)-2-methyloxazole]	43	56
Cc1nc(C(F)(F)F)cn1-c1ccc(-c2cccc(S(C)(=O)=O)c2)cc1-c1nc(C(F)(F)F)cn1-c1ccc2c(c1)OC(F)(F)O2 [Example 640, 1-(2,2-difluorobenzo[d][1,3]dioxol-5-yl)-2-(4-(2-methyl-4-(trifluoromethyl)-1H-imidazol-1-yl)-3′-(methylsulfonyl)biphenyl-3-yl)-4-(trifluoromethyl)-1H-imidazole]	218	61
CS(=O)(=O)c1cccc(-c2cc(F)c(-n3cnc(C(F)(F)F)c3)c(-n3nncc3-c3ccc(Cl)cc3Cl)c2)c1 [Example 191, 5-(2,4-dichlorophenyl)-1-{5-fluoro-3′-(methylsulfonyl)-4-[4-(trifluoromethyl)-1H-imidazol-1-yl]biphenyl-3-yl}-1H-1,2,3-triazole]	452	102
Cc1nc(C(F)(F)F)cn1-c1c(Cl)cc(-c2cccc(S(C)(=O)=O)c2)cc1-n1nncc1-c1ccc(OC(F)(F)F)cc1 [Example 195, 1-{5-chloro-3′-(methylsulfonyl)-4-[2-methyl-4-(trifluoromethyl)-1H-imidazol-1-yl]biphenyl-3-yl}-5-{4-[(trifluoromethyl)oxy]phenyl}-1H-1,2,3-triazole]	574	83
Cc1nc(C(C)(F)F)cn1-c1ccc(-c2cccc(S(=O)(=O)N(C)C)c2)cc1-n1nncc1-c1ccc(OC(F)(F)F)cc1 [Example 181, 4′-[4-(1,1-difluoroethyl)-2-methyl-1H-imidazol-1-yl]-N,N-dimethyl-3′-(5-{4-[(trifluoromethyl)oxy]phenyl}-1H-1,2,3-triazol-1-yl)biphenyl-3-sulfonamide]	502	70

— patent publication US9834542B2, “LXR modulators” (BRISTOL-MYERS SQUIBB COMPANY, priority 2013, dated 2017)
